From US20220152159A1, “PHARMACEUTICAL COMPOSITION, METHODS FOR TREATING AND USES THEREOF” (Boehringer Ingelheim International GmbH, priority 2010, published 2022)

How the values were obtained:
[1] = tested on: streptozotocin-pretreated male Sprague-Dawley rats (experimental diabetes, type 1 diabetic condition); test: Example 1a: blood glucose over 4 h after SGLT2 inhibitor, insulin glargine or combination; type: in vivo, rat; settings: four hours after administration, Cpd. A 10 mg/kg oral, insulin glargine 1.5 IU/animal s.c.; for reduction of blood glucose versus control: combination at the same doses, 3-h fasted STZ rats; for statistical difference of blood glucose versus control: combination same doses
Procedure: All experimental protocols concerning the use of laboratory animals were reviewed by a federal Ethics Committee and approved by governmental authorities. Two weeks before the study starts, the rats were pretreated with a single dose of 60 mg/kg i.p. of streptozotocin to induced experimental diabetes, resembling a type 1 diabetic condition. During the study blood glucose was followed over 4 h in male, 3-h fasted Sprague-Dawley rats (Crl:CD) with an age of 8-9 weeks at the start of the study. A pre-dose blood sample was obtained by tail bleed for randomization and blood glucose was measured with a glucometer 30, 60, 90 min and 2, 3, 4 hours after administration of the insulin and/or the SGLT2 inhibitor. At time point 0 min, the animals (n=4-6 per group) were injected either with insulin glargine or isotonic NaCl subcutaneously. Simultaneously all animals received oral administrations of either vehicle alone (0.5% aqueous hydroxyethylcellulose) or this vehicle containing the SGLT2 inhibitor. The data are presented as mean±S.E.M. Statistical comparison was conducted by repeated measures two-way ANOVA (analysis of variance) followed by Bonferroni post tests for group-wise comparisons. A p value <0.05 was considered to show a statistically significant difference. The term “Cpd. A” denotes the SGLT2 inhibitor compound (1.9) at a dose of 10 mg/kg. Insulin glargine was administered at a dose of 1.5 IU/animal. The term “Cpd. A+Insulin glargine” denotes the combination of the SGLT2 inhibitor compound (1.9) and insulin glargine at the same doses. P values versus control are indicated by asterisks and p values of the monotherapies versus the combination are indicated by crosses (one symbol, p<0.05; two symbols, p<0.01; three symbols, p<0.001). Four hours after administration, the SGLT2 inhibitor had reduced blood glucose by 19% versus control, and insulin glargine by 27%.

[2] = tested on: streptozotocin-pretreated male Sprague-Dawley rats (experimental diabetes, type 1 diabetic condition); test: Example 1b: blood glucose over 6 h after SGLT2 inhibitor, insulin glargine or combination; type: in vivo, rat; settings: six hours after administration, Cpd. A 10 mg/kg oral, insulin glargine 1.5 μl/animal s.c.; for reduction of blood glucose versus control: combination at the same doses, 3-h fasted STZ rats; for statistical difference of blood glucose versus control: combination same doses
Procedure: All experimental protocols concerning the use of laboratory animals were reviewed by a federal Ethics Committee and approved by governmental authorities. Two weeks before the study starts, the rats were pretreated with a single dose of 60 mg/kg i.p. of streptozotocin to induced experimental diabetes, resembling a type 1 diabetic condition. During the study blood glucose was followed over 6 h in male, 3-h fasted Sprague-Dawley rats (Crl:CD) with an age of 8-9 weeks at the start of the study. A pre-dose blood sample was obtained by tail bleed for randomization and blood glucose was measured with a glucometer 30, 60, 90 min and 2, 3, 4, 5, 6 hours after administration of insulin and/or the SGLT2 inhibitor. At time point 0 min, the animals (n=4-6 per group) were injected either with insulin glargine or isotonic NaCl subcutaneously. Simultaneously all animals received oral administrations of either vehicle alone (0.5% aqueous hydroxyethylcellulose) or this vehicle containing the SGLT2 inhibitor. The data are presented as mean±S.E.M. Statistical comparison was conducted by repeated measures two-way ANOVA followed by Bonferroni post tests for group-wise comparisons. A p value <0.05 was considered to show a statistically significant difference. The term “Cpd. A” denotes the SGLT2 inhibitor compound (1.9) at a dose of 10 mg/kg. Insulin glargine was administered at a dose of 1.5 μl/animal. The term “Cpd. A+Insulin glargine” denotes the combination of the SGLT2 inhibitor compound (1.9) and insulin glargine at the same doses. P values versus control are indicated by asterisks and p values of the monotherapies versus the combination are indicated by crosses (one symbol, p<0.05; two symbols, p<0.01; three symbols, p<0.001). Six hours after administration, the SGLT2 inhibitor had reduced blood glucose by 13% versus control, and insulin glargine by 22%.

the diabetic = settings: metformin on its own; cited from earlier work
[3] = tested on: streptozotocin-pretreated male Sprague-Dawley rats (experimental diabetes, type 1 diabetic condition); test: Example 2a: blood glucose over 4 h, SGLT2 inhibitor plus low-dose insulin glargine versus high-dose insulin glargine; type: in vivo, rat; settings: for reduction of blood glucose versus control: four hours after administration; for statistical difference of blood glucose versus control: four hours
Procedure: All experimental protocols concerning the use of laboratory animals were reviewed by a federal Ethics Committee and approved by governmental authorities. Two weeks before the study starts, the rats were pretreated with a single dose of 60 mg/kg i.p. of streptozotocin to induced experimental diabetes, resembling a type 1 diabetic condition. During the study blood glucose was followed over 4 h in male, 3-h fasted Sprague-Dawley rats (Crl:CD) with an age of 8-9 weeks at the start of the study. A pre-dose blood sample was obtained by tail bleed for randomization and blood glucose was measured with a glucometer 30, 60, 90 min and 2, 3, 4 h after administration of the insulin alone or together with the SGLT2 inhibitor. At time point 0 min, the animals (n=4-6 per group) were injected either with insulin glargine or isotonic NaCl subcutaneously. Simultaneously all animals received oral administrations of either vehicle alone (0.5% aqueous hydroxyethylcellulose) or this vehicle containing the SGLT2 inhibitor. The data are presented as mean±S.E.M. Statistical comparison was conducted by repeated measures two-way ANOVA followed by Bonferroni post tests for group-wise comparisons. A p value <0.05 was considered to show a statistically significant difference. Insulin glargine was administered at a dose of 1.5 μl/animal (low-dose) or 6 μl/animal (high-dose). The term “Cpd. A+low-dose insulin glargine” denotes the combination of the SGLT2 inhibitor at a dose of 10 mg/kg and insulin glargine at a dose of 1.5 μl/animal. P values versus control are indicated by asterisks and p values of the low-dose insulin glargine versus the combination or the high-dose insulin glargine are indicated by crosses (one symbol, p<0.05; two symbols, p<0.01; three symbols, p<0.001). […] The combination had decreased blood glucose by 53%, which was in the range of the high-dose insulin glargine with a decrease of 47%.

[4] = tested on: streptozotocin-pretreated male Sprague-Dawley rats (experimental diabetes, type 1 diabetic condition); test: Example 2b: blood glucose over 6 h, SGLT2 inhibitor plus low-dose insulin glargine versus high-dose insulin glargine; type: in vivo, rat; settings: for reduction of blood glucose versus control: six hours after administration; for statistical difference of blood glucose versus control: six hours
Procedure: All experimental protocols concerning the use of laboratory animals were reviewed by a federal Ethics Committee and approved by governmental authorities. Two weeks before the study starts, the rats were pretreated with a single dose of 60 mg/kg i.p. of streptozotocin to induced experimental diabetes, resembling a type 1 diabetic condition. During the study blood glucose was followed over 6 h in male, 3-h fasted Sprague-Dawley rats (Crl:CD) with an age of 8-9 weeks at the start of the study. A pre-dose blood sample was obtained by tail bleed for randomization and blood glucose was measured with a glucometer 30, 60, 90 min and 2, 3, 4, 5, 6 h after administration of insulin alone or together with the SGLT2 inhibitor. At time point 0 min, the animals (n=4-6 per group) were injected either with insulin glargine or isotonic NaCl subcutaneously. Simultaneously all animals received oral administrations of either vehicle alone (0.5% aqueous hydroxyethylcellulose) or this vehicle containing the SGLT2 inhibitor. The data are presented as mean±S.E.M. Statistical comparison was conducted by repeated measures two-way ANOVA followed by Bonferroni post tests for group-wise comparisons. A p value <0.05 was considered to show a statistically significant difference. Insulin glargine was administered at a dose of 1.5 μl/animal (low-dose) or 6 IU/animal (high-dose). The term “Cpd. A+low-dose insulin glargine” denotes the combination of the SGLT2 inhibitor at a dose of 10 mg/kg and insulin glargine at a dose of 1.5 μl/animal. P values versus control are indicated by asterisks and p values of the low-dose insulin glargine versus the combination or the high-dose insulin glargine are indicated by crosses (one symbol, p<0.05; two symbols, p<0.01; three symbols, p<0.001). […] The combination had decreased blood glucose by 49%, which was in the range of the high-dose insulin glargine with a decrease of 44%.

[5] = low-dose insulin glargine 1.5 μl/animal s.c., alone or with Cpd. A 10 mg/kg oral
[6] = low-dose insulin glargine 1.5 μl/animal, alone or with Cpd. A 10 mg/kg

OC[C@H]1O[C@@H](c2ccc(Cl)c(Cc3ccc(O[C@H]4CCOC4)cc3)c2)[C@H](O)[C@@H](O)[C@@H]1O [compound (1.9), 1-chloro-4-(β-D-glucopyranos-1-yl)-2-[4-((S)-tetrahydrofuran-3-yloxy)-benzyl]-benzene]
reduction of blood glucose versus control [1]: 19%
statistical difference of blood glucose versus control [1]: did not show statistically significant differences versus control
reduction of blood glucose versus control [2]: 13%
statistical difference of blood glucose versus control [2]: did not show statistically significant differences versus control

CN(C)C(=N)N=C(N)N [metformin]
average improvement in the HbA1c value (the diabetic): 1.0-1.5%

Gly^A21, Arg^B31, Arg^B32 human insulin [insulin glargine]
reduction of blood glucose versus control [1]: 27%
statistical difference of blood glucose versus control [1]: did not show statistically significant differences versus control
reduction of blood glucose versus control [2]: 22%
statistical difference of blood glucose versus control [2]: did not show statistically significant differences versus control
reduction of blood glucose versus control ([3]; high-dose insulin glargine 6 μl/animal s.c.): 47%
reduction of blood glucose versus control [3, 5]: 27%
statistical difference of blood glucose versus control ([3]; high-dose insulin glargine 6 μl/animal): significantly different from the control
statistical difference of blood glucose versus control [3, 6]: without showing statistically significant difference
reduction of blood glucose versus control ([4]; high-dose insulin glargine 6 IU/animal s.c.): 44%
reduction of blood glucose versus control [4, 5]: 22%
statistical difference of blood glucose versus control ([4]; high-dose insulin glargine 6 IU/animal): significantly different from the control
statistical difference of blood glucose versus control [4, 6]: without showing statistically significant difference
